Test system: cats with FIC (Feline Idiopathic Cystitis)
Assay: VSOM and Cystitis Events Survey combined effect in FIC cats
Assay type: in vivo, cat
Settings: for Cystitis ≥2 and VSOM ≥2 Point success, cats n/N / Cystitis ≥3 and VSOM ≥2 Point success, cats n/N / Cystitis ≥3 and VSOM ≥2 Point success, percent of cats / Cystitis ≥2 and VSOM ≥2 Point success, percent of cats: Day 28
Excerpt: Treatment success was defined as “a reduction of at least 2 in total VSOM score at Day 3 and 28 compared to VSOM score at day 0.” A decrease of less than 2, no change, or an increase in total score was defined as treatment failure. Cats presenting an increase in any individual VSOM score were considered a treatment failure regardless of total VSOM score.
The use of the Cystitis Events Survey was exploratory, and no strict definition of success was applied to the results. However, and based on published literature, the results were described as follows: (1) percentage of cats per cohort with an average improvement of 2 or more points and no increase in any individual score on Day 28; and (2) percentage of cats per cohort with an average improvement of 3 or more points and no increase in any individual score on Day 28.
When the results were combined for VSOM improvement of ≥2 and cystitis improvement of ≥3, the effectiveness decreased from 100% to 80% (see Cohort 1). […] Overall, the decrease was approximately 20% in Cohorts 1-2.

C=C(C)[C@]12C[C@@H](C)[C@@]34O[C@](Cc5ccccc5)(O[C@@H]1[C@@H]3C=C(COC(=O)Cc1ccc(O)c(OC)c1)C[C@]1(O)C(=O)C(C)=C[C@@H]41)O2 [RTX, resiniferatoxin]
Cystitis ≥2 and VSOM ≥2 Point success, cats n/N (6.25 μg/25 mL (Cohort 2)): 3/6
Cystitis ≥3 and VSOM ≥2 Point success, cats n/N (6.25 μg/25 mL (Cohort 2)): 2/6
Cystitis ≥3 and VSOM ≥2 Point success, percent of cats (6.25 μg/25 mL (Cohort 2)): (33.3%)
Cystitis ≥2 and VSOM ≥2 Point success, cats n/N (12.5 μg/10 mL (Cohort 4)): 4/6
Cystitis ≥2 and VSOM ≥2 Point success, percent of cats (12.5 μg/10 mL (Cohort 4)): (66.7%)
Cystitis ≥3 and VSOM ≥2 Point success, cats n/N (12.5 μg/10 mL (Cohort 4)): 4/6
Cystitis ≥3 and VSOM ≥2 Point success, percent of cats (12.5 μg/10 mL (Cohort 4)): (66.7%)
Cystitis ≥2 and VSOM ≥2 Point success, cats n/N (12.5 μg/25 mL (Cohort 3)): 6/6
Cystitis ≥2 and VSOM ≥2 Point success, percent of cats (12.5 μg/25 mL (Cohort 3)): (100%)
Cystitis ≥3 and VSOM ≥2 Point success, cats n/N (12.5 μg/25 mL (Cohort 3)): 6/6
Cystitis ≥3 and VSOM ≥2 Point success, percent of cats (12.5 μg/25 mL (Cohort 3)): (100%)
Cystitis ≥2 and VSOM ≥2 Point success, cats n/N (25 μg/25 mL (Cohort 1)): 4/5
Cystitis ≥2 and VSOM ≥2 Point success, percent of cats (25 μg/25 mL (Cohort 1)): (80%)
Cystitis ≥3 and VSOM ≥2 Point success, cats n/N (25 μg/25 mL (Cohort 1)): 4/5
decrease in effectiveness when VSOM and cystitis results are combined (Cohorts 1-2, overall): approximately 20%

From patent publication US20230270713A1, “Administration of Resiniferatoxin For Treatment of Bladder Pain or Bladder Cancer” (Sorrento Therapeutics, Inc., priority 2020, published 2023)
